Residues, ends and D or L forms follow the SMILES beside them. *: point of attachment. Cbz = O=C(OCc1ccccc1)*

In turn, `CCc1cc2cc(O)c(Cl)c(Cl)c2s1` showed a melting point of 69 to 70 °C.
As for `CCn1cc(C(=O)O)c(=O)c2cc(F)c(C(=O)CBr)c(F)c21`, the figure is 213 to 215 °C; as for `CCOC(=O)c1ccc(-c2nc(COc3ccc(COc4nn(-c5ccccc5)cc4/C=C\c4csc(CC)n4)cc3OC)c(C)o2)o1`, 133 to 135 °C.
`O=CNC(Cc1ccccc1)C1CC(Cc2ccccc2)=NO1` (stereo not drawn) yielded a melting point of 112 to 113 °C.
`CN(Cc1ccc2cc(NS(C)(=O)=O)ccc2n1)C1Cc2ccc(NS(C)(=O)=O)cc2C1` (stereo not drawn): the melting point is 189 to 191 °C.
As for `COc1ccc(Br)c(C=O)c1OC`, the figure is 92 to 93 °C.
On to `CCOc1nsc(NC(=O)N(C)C)c1C#N`, for which the melting point fell in the range of 204 to 205 °C.
In the case of `Cc1cc(CCCCCOc2c(Cl)cc(-c3nnc(C)o3)cc2Cl)on1` it was 71 to 72 °C; in that of `CCCCC(=O)N(CCOCc1ccccc1)Cc1ccc(-c2ccccc2-c2nnn[nH]2)cc1`, 109 to 110 °C.
In turn, `CC(C)(C)OC(=O)N1CCC(N2Cc3ccccc3NC2=NC#N)CC1` had a melting point of 249 to 250 °C.
Compound `COc1cc(F)ccc1-c1ccc(O)c(C(=O)O)c1` registered a melting point of 205 to 207 °C.
In the case of `CS(=O)(=O)c1ccc(C(CC2CCOCC2)c2ccc(-c3nnc(CO)s3)[nH]2)cc1` (stereo not drawn) it was 199 to 201 °C; in that of `O=C(Nc1cc2ncc(CN3CCCC3)cc2cc1F)c1ccc(-c2ccc(F)cc2)cc1`, 198 to 200 °C; in that of `CCOC(=O)c1cc(CCC2CNc3nc(NC(=O)C(C)(C)C)nc(O)c3C2)[nH]n1` (stereo not drawn), 235 to 237 °C.
Compound `COC(=O)CCn1cc(Cc2cccnc2)c2cc([N+](=O)[O-])ccc21` returned a melting point of 101 to 102 °C.
`COC(=O)c1nc(-c2ccc(Cl)c(F)c2F)nc(N)c1/C=C/[Si](C)(C)C`: the melting point is 139 to 141 °C.
As for `CN1CCC(c2c[nH]c3ccc(OS(=O)(=O)c4ccc(F)c(F)c4F)cc23)CC1`, the figure is 160 to 162 °C; as for `Fc1ccc(C2OC3(CCNCC3)N3CCCCC23)cc1` (stereo not drawn), 112 to 114 °C.
In the case of `CCCC(C)(CCl)c1cc(Cl)nnc1Cl` (stereo not drawn) it was 68 to 69 °C; in that of `CC(C)(C(=O)O)C(=O)O`, 121 to 123 °C; in that of `CN(CCO)c1cccc2c1C(=O)c1c(cccc1N(C)CCO)C2=O`, 168 to 178 °C.
As for `C#CCCCCCCCCCCCCCCCCCCCC(=O)OC(C)(C)C`, the figure is 44 to 45 °C; as for `N=c1n[n+]([O-])c2ccccc2n1OC(=O)c1ccccc1`, 177 to 179 °C.
With `C=Cc1ccc2nnn(OS(=O)(=O)c3ccc(C)cc3)c2c1`, the melting point lay within 90 to 91 °C.
In turn, `CC(=O)N1N=C(c2ccc([N+](=O)[O-])cc2)c2ccc(Cl)cc2CC1C` (stereo not drawn) came in with a melting point of 174 to 175 °C.
As for `COCc1c(C(=O)OC(C)C)ncc2[nH]c3ccc(OCc4ccccc4Cl)cc3c12`, the figure is 135 to 141 °C.
As for `CCC(=O)NC1=NN(c2ccccc2)C(c2ccccc2)C1` (stereo not drawn), the figure is 148 °C; as for `CCCCCCCCCCCCC#CCO`, 36 to 37 °C; as for `COC(=O)c1ccc2oc3c(c(=O)c2c1)CCC3=Cc1ccccn1`, 250 to 252 °C.
As for `O=C(Nc1ccc(F)cc1)NC1CCN(C(=O)c2ccc(C(=O)O)cc2)CC1`, the figure is 195 to 198 °C; as for `O=C(O)c1cnc(N2CCCC2)c(OCC2CCCC2)n1`, 204 to 206 °C; as for `CC(=O)CC1(C)C=NC=CN1c1ccccc1` (stereo not drawn), 67 to 68 °C.
The compound `COc1ccc(C2CNC(=O)C2)cc1OS(=O)(=O)C(F)(F)F` (stereo not drawn) registered a melting point of 99 to 101 °C.
In the case of `Cc1cc2c(c3ccc(=O)[nH]c13)OC(CSCCN)C2` (stereo not drawn) it was 182 to 184 °C; in that of `O=C(CSC1c2ccccc2COc2ccc(OCc3ccc4ccc(Cl)cc4n3)cc21)NS(=O)(=O)c1ccccc1` (stereo not drawn), 130 to 135 °C.
As for `CC(C)Oc1ccc(O)cc1OCCN1C(=O)c2ccccc2C1=O`, the figure is 123 °C; as for `CN1CCc2c(cccc2NC(=O)c2ccccc2[N+](=O)[O-])C1`, 196 to 198 °C.
As for `Cc1nsc(OCC(Cl)(Cl)Cl)c1S(N)(=O)=O`, the figure is 140 to 142 °C.
Regarding `N#Cc1c(N2CCc3ccccc3CC2)nc(=O)[nH]c1OCC(F)(F)F`, the melting point lay in the range of 196 to 198 °C.
In the case of `CCC(=O)Nc1ccc2c(c1)C(=O)c1cc(NC(=O)CC)ccc1C2=O` it was 291 °C.
`CCCc1[nH]c(=O)oc1-c1ccnc(-c2ccccc2)c1` displayed a melting point of 202 to 204 °C.
As to `O=S(=O)(c1cccc(C(F)(F)F)c1)c1cc(Br)nc(N2CCNCC2)c1`, the melting point fell in the range of 160 to 162 °C.
In the case of `CCC(=O)N[C@@H]1CN(C(=O)c2nn(C)c3ccccc23)C[C@@H]1C` (relative stereo) it was 139 to 141 °C.
As to `CC(C)c1cccc(C(C)C)c1NC(=O)NCC1(c2ccc(-c3ccccc3)cc2)CCC1`, the melting point lay in the range of 177 to 179 °C.
As for `C/C=C/C=C(\C[C@H](N)C(=O)O)C(=O)O`, the figure is 190 °C.
`C=Cc1cc(CNC(=O)NCc2ccc(C(C)(C)C)cc2)cc(C)c1NS(C)(=O)=O` gave a melting point of 105 to 107 °C.
As for `Nc1nc2ccccc2c2c1nc(CNC(=O)C1CC1)n2CC1(O)CCCCC1`, the figure is above 250 °C.
Compound `C=CC[C@H]1C[C@@](OS(C)(=O)=O)(C(=O)OC)C[C@@H](OC(=O)c2ccccc2)[C@@H]1O` displayed a melting point of 46 to 47 °C.
In the case of `C=C(c1ccc(OC)cc1)c1ccc(N(C)C)cc1` it was 124 to 126 °C.
On to `O=c1ccsc2c1[nH]c1ccc(Br)cc12`, for which the melting point fell in the range of 334 to 337 °C.
As for `CC(C)(C)NCC(O)c1ccc(O)c(NC=O)c1` (stereo not drawn), the figure is 195 to 196 °C.
Take `CN(CCOc1ccc(CON=C(C(=O)O)c2ccccc2)cc1)c1ccccn1`: the melting point is 93 to 94 °C.
Turning to `CCCn1cc(C2(c3cccc(-c4cccnc4F)c3)N=C(N)N(C)C2=O)cc1C(=O)CC` (stereo not drawn), the melting point was 118 °C.
For the compound `COc1ccc(C2(O)C(=O)N(Cc3ccc(Cl)cc3)c3ccccc32)cn1` (stereo not drawn), the melting point lay within 182 to 184 °C.
As for `C=CCN1CN(C(=O)c2c(F)cccc2F)C(=O)N(c2ccc(Cl)cc2)C1`, the figure is 87 to 88 °C; as for `CC(C)NC(=S)N1CCc2[nH]cnc2C1C(C)C` (stereo not drawn), 203 °C; as for `COc1ccc(-c2cnc3[nH]cc(C#N)c3n2)cc1OC`, 284 to 285 °C.
In the case of `Oc1cc(Cl)cc(Br)c1` it was 66 to 68 °C; in that of `FC(F)(F)c1ccc(-c2[nH]c(=S)[nH]c2-c2ccc(C(F)(F)F)cc2)cc1`, 312 to 315 °C; in that of `CC(C)O[Si](C)(C)C[C@](O)(c1ccc(F)cc1F)[C@@H](C)n1ncn(-c2ccc(OCC(F)(F)C(F)F)cc2)c1=O`, 125 to 126 °C.
As for `CNCc1nnc2n1-c1ccc(Cl)cc1C(c1ccccc1F)=CC2`, the figure is 170 to 171 °C; as for `O=C(NN=CC(F)(F)C(F)(F)F)c1nc(Oc2cccc(C(F)(F)F)c2)ccc1Cl`, 130 to 131 °C.
Regarding `N=C(N)NCCCC(NC(=O)C1CCCN1C(=O)C(CCCCNC(=O)OCc1ccccc1)NC(=O)CNC(=O)OCc1ccccc1)C(=O)O` (stereo not drawn) (Cbz-GK(Cbz)PR-OH; configuration not given here), the melting point came out at 175 °C.
As for `C#Cc1ncn2c1CN(C)C(=O)c1ccccc1-2`, the figure is 191 to 193 °C; as for `Cn1nc2ccccc2c1C(=O)NCCCN1CCC(c2ccc(F)cc2)CC1`, 136 to 140 °C.
In the case of `CCOC(=O)NNC(=O)Nc1c(F)c(F)c(F)c(F)c1F` it was 180 to 182 °C.
Turning to `COc1ccnc(CS(=O)c2nc3c(C(F)(F)F)cccc3[nH]2)c1` (stereo not drawn), the melting point is 150 to 151 °C.
In the case of `CON=C(C#N)c1ccccc1S(N)(=O)=O` it was 82 to 90 °C; in that of `CCSCCC(=O)NCC(=O)N1Cc2ccccc2Oc2ccc(Cl)cc21`, 148 to 151 °C; in that of `O=C1Nc2ccc(-c3ccc(F)c(Cl)c3)cc2C12CCCC2`, 202 to 204 °C.
Compound `COc1ccc(CN2Cc3c(C(N)=O)ncn3-c3ccc(Cl)cc3C2=O)c(OC)c1` showed a melting point above 220 °C.
As for `C1=C[C@H]2CCN(CC3CC3)C[C@@H]2Cc2ccccc21` (relative stereo), the figure is 157 to 159 °C; as for `Cn1nc(-c2ccc(C(=N)N)cc2)cc(C(=O)N[C@H]2CC[C@H](C(=O)O)CC2)c1=O`, 263 to 266 °C.
As for `Cc1cc(C(=O)CCc2sc(-c3ccc(C(F)(F)F)cc3)cc2C(C)C)ccc1OCC(=O)O`, the figure is 139 to 143 °C; as for `CN(CCOc1ccc(CC(Sc2ccc(Cl)cc2)C(=O)O)cc1)c1nc2ccccc2o1` (stereo not drawn), 156 to 157 °C.
As for `CCCCCCCC(=O)Oc1ccc(-c2nc(-c3ccc(N(C)C)cc3)c(C)[nH]2)cc1OC`, the figure is 126 to 129 °C.
Compound `O=c1c2cc(Br)ccc2ncn1Cc1cccnc1` yielded a melting point of 162 to 164 °C.
In the case of `CCOC(=O)CCCOc1ccc([N+](=O)[O-])c(C=C2NC(=O)NC2=O)c1` it was 131 to 134 °C; in that of `CC(=O)N1CC(C)(C)c2cc3nc(C(F)(F)F)[nH]c3cc21`, 290 to 291 °C.
`CCCc1c(O)ccc2c1OC(C)(CCC(N)=O)CC2=O` (stereo not drawn) came in with a melting point of 108 to 115 °C.
As for `O=C1NC2CCC(Cc3ccc(O)cc3)CC2CC1CO` (stereo not drawn), the figure is 126 to 128 °C; as for `CCCC1=NN(c2ccc(C(=O)N(CC)CC)cc2)C(=O)C1=CNc1ccccc1CC`, 123 °C.
In the case of `Cc1cc(N(C)C)c2c(N)c(C(N)=O)sc2n1` it was 167 to 170 °C; in that of `CCN(Cc1cc(Cl)ccc1OCC1CC1)c1ccc(C(=O)O)nn1`, 119 to 120 °C; in that of `Cc1ccc(C(=O)NC(=O)Nc2ccc3c(c2)NC(=O)/C3=C\c2ccc[nH]2)cc1`, 276 to 281 °C.
In the case of `CN(C)CCN1C(=O)C(C)(C)SC1c1cccnc1` (stereo not drawn) it was 67 to 70 °C; in that of `CCOC(=O)c1cc2c(C)c(C)cc(NS(=O)(=O)c3cccs3)c2[nH]1`, 161 to 162 °C; in that of `CC(=O)Oc1ccc(Cn2ccnc2SC(C)=O)cc1`, 99 to 101 °C.

A word on the melting point: it is the temperature of the solid-liquid transition.

For the origin of these results see a melting point compilation (Tetko et al.; mined from patent text by program, amines drawn as free bases though some values may be those of a salt).
